In assay [1] the target is Human KLK1 (Homo sapiens (Human), UniProt P06870). Briefly: Determination of the IC50 for KLK1. The class given is biochemical. To be noted: 37° C., fluorogenic substrate H-DVal-Leu-Arg-AFC. The method, then: KLK1 inhibitory activity in vitro was determined using standard published methods (see e.g. Johansen et al., Int. J. Tiss. Reac. 1986, 8, 185; Shori et al., Biochem. Pharmacol., 1992, 43, 1209; Stürzebecher et al., Biol. Chem. Hoppe-Seyler, 1992, 373, 1025). Human KLK1 (Callbiochem) was incubated at 37° C. with the fluorogenic substrate H-DVal-Leu-Arg-AFC and various concentrations of the test compound. Residual enzyme activity (initial rate of reaction) was determined by measuring the change in optical absorbance at 410 nm and the IC50 value for the test compound was determined.
Sequence of Human KLK1 (P06870 25-262): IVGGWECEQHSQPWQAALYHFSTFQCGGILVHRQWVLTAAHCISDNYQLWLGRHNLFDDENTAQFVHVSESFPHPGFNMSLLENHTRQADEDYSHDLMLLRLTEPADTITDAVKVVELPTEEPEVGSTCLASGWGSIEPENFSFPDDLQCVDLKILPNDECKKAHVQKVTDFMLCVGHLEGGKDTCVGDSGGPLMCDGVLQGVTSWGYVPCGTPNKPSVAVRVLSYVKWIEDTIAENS

Assay [2] has as its target Human plasma kallikrein (Homo sapiens (Human), UniProt P03952). Briefly: Determination of the IC50 for Plasma Kallikrein. The class given is biochemical. To be noted: 37° C., fluorogenic substrate H-DPro-Phe-Arg-AFC; read-out: IC50 (human PKal). The method, then:
Human plasma kallikrein (Protogen) was incubated at 37° C. with the fluorogenic substrate H-DPro-Phe-Arg-AFC and various concentrations of the test compound. Residual enzyme activity (initial rate of reaction) was determined by measuring the change in optical absorbance at 410 nm and the IC50 value for the test compound was determined.

Sequence of Human plasma kallikrein (P03952 391-638): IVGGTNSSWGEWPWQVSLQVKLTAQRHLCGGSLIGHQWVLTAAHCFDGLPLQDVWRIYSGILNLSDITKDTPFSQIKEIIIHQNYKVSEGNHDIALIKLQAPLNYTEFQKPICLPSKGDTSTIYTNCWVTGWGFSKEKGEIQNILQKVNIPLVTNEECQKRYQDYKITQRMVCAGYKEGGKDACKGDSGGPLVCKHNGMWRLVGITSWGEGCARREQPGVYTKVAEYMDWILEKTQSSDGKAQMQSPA
Sequence of Human plasma kallikrein (P03952 20-390 partner): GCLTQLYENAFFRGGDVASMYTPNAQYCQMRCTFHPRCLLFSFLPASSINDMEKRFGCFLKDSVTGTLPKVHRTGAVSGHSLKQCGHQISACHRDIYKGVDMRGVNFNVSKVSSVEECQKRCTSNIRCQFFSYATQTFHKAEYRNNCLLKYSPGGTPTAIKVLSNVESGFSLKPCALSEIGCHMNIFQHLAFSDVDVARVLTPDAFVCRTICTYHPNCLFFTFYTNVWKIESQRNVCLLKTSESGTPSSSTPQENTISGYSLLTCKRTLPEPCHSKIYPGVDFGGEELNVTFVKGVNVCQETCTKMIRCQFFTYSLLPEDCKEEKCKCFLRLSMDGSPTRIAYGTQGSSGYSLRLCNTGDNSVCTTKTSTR

On to `Cc1cnn(Cc2ccc(Cn3c(C)cc(C(=O)NCc4ccc(C5(N)CC5)cc4)c3C)cc2)c1` [Example 98, 2,5-Dimethyl-1-[4-(4-methyl-pyrazol-1-ylmethyl)-benzyl]-1H-pyrrole-3-carboxylic acid 4-(1-amino-cyclopropyl)-benzylamide], for which the IC50 in assay [1] was > 10 µM; in assay [2], 701 nM.
The matching figures for `Cc1cc(C(=O)NCc2ccc(CN)cc2)c(C)n1Cc1cccc(C(N)=O)c1` [Example 62, 1-(3-Carbamoyl-benzyl)-2,5-dimethyl-1H-pyrrole-3-carboxylic acid 4-aminomethyl-benzylamide]: > 10 µM and 6030 nM.
The matching figures for `Cc1cnn(Cc2ccc(Cn3cc(C(=O)NCc4c(C)cc(CN)cc4C)nn3)cc2)c1` [Example 113, 1-[4-(4-Methyl-pyrazol-1-ylmethyl)-benzyl]-1H-[1,2,3]triazole-4-carboxylic acid 4-aminomethyl-2,6-dimethyl-benzylamide]: > 10 µM and 2 nM.
Consider `Cc1cc(C(=O)NCc2ccc(CN)cc2)c(C)n1Cc1ccc(C#N)cc1` [Example 65, 1-(4-Cyano-benzyl)-2,5-dimethyl-1H-pyrrole-3-carboxylic acid 4-aminomethyl-benzylamide], for which the figures for the IC50 in assay [1] and in assay [2] were > 10 µM and 4560 nM, respectively.
Turning to `Cc1cnn(Cc2ccc(Cn3cnc(C(=O)NCc4ccc(CN)cc4C)c3)cc2)c1` [Example 107, 1-[4-(4-Methyl-pyrazol-1-ylmethyl)-benzyl]-1H-imidazole-4-carboxylic acid 4-aminomethyl-2-methyl-benzylamide], the IC50 in assay [1] was > 10 µM; in assay [2], 3 nM.
The matching figures for `Cc1cnn(Cc2ccc(Cn3cc(C(=O)NCc4ccc(CN)c(F)c4)c(C(F)(F)F)n3)cc2)c1` [Example 117, 1-[4-(4-Methyl-pyrazol-1-ylmethyl)-benzyl]-3-trifluoromethyl-1H-pyrazole-4-carboxylic acid 4-aminomethyl-3-fluoro-benzylamide]: > 10 µM and 51 nM.
For `Cc1cc(C(=O)NCc2ccc(CN)cc2)c(C)n1Cc1csc(-c2cccc(F)c2)n1` [Example 29, 1-[2-(3-Fluoro-phenyl)-thiazol-4-ylmethyl]-2,5-dimethyl-1H-pyrrole-3-carboxylic acid 4-aminomethyl-benzylamide], in that order: > 10 µM and 140 nM.
For `CCn1c(C(=O)NCc2ccc(CN)cc2)cc(C)c1Cc1ccccc1` [Example 77, 5-Benzyl-1-ethyl-4-methyl-1H-pyrrole-2-carboxylic acid 4-aminomethyl-benzylamide], in that order: > 10 µM and 3720 nM.
On to `Cc1cc(CN)ccc1CNC(=O)c1cc(C)n(Cc2ccc(Cn3ccccc3=O)cc2)c1C` [Example 91, 2,5-Dimethyl-1-[4-(2-oxo-2H-pyridin-1-ylmethyl)-benzyl]-1H-pyrrole-3-carboxylic acid 4-aminomethyl-2-methyl-benzylamide], for which the values for the IC50 in assay [1] and in assay [2] were > 10 µM and 29 nM, respectively.
For the compound `Cc1cc(C(=O)NCc2ccc(CN)cc2)c(C)n1Cc1cccc(C#N)c1` [Example 64, 1-(3-Cyano-benzyl)-2,5-dimethyl-1H-pyrrole-3-carboxylic acid 4-aminomethyl-benzylamide], the IC50 in assay [1] is > 10 µM; in assay [2], 6250 nM.
`Cc1cc(C(=O)NCc2ccc(CN)cc2)c(-c2ccccc2)n1Cc1csc(-c2ccccc2)n1` [Example 24, 5-Methyl-2-phenyl-1-(2-phenyl-thiazol-4-ylmethyl)-1H-pyrrole-3-carboxylic acid 4-aminomethyl-benzylamide]: the IC50 in assay [1] was > 10 µM; in assay [2], 431 nM.
The matching figures for `Cc1cc(C(=O)NCc2ccc(CN)cc2)c(C)n1Cc1csc(-c2cnccn2)n1` [Example 40, 2,5-Dimethyl-1-(2-pyrazin-2-yl-thiazol-4-ylmethyl)-1H-pyrrole-3-carboxylic acid 4-aminomethyl-benzylamide]: > 10 µM and 1660 nM.
As to `COc1cc(CNC(=O)c2cc(C)n(Cc3csc(-c4ccccc4)n3)c2C)ccc1CN` [Example 53, 2,5-Dimethyl-1-(2-phenyl-thiazol-4-ylmethyl)-1H-pyrrole-3-carboxylic acid 4-aminomethyl-3-methoxy-benzylamide], the IC50 in assay [1] was > 10 µM; in assay [2], 677 nM.
For `Cc1cc(C(=O)NCc2ccc(CN)cc2Cl)c(C)n1Cc1ccccc1` [Example 56, 1-Benzyl-2,5-dimethyl-1H-pyrrole-3-carboxylic acid 4-aminomethyl-2-chloro-benzylamide], in that order: 5.48 µM and 3860 nM.
For `Cc1c(C(=O)NCc2ccc(CN)cc2)cnn1Cc1csc(-c2ccccc2)n1` [Example 80, 5-Methyl-1-(2-phenyl-thiazol-4-ylmethyl)-1H-pyrazole-4-carboxylic acid 4-aminomethyl-benzylamide], in that order: > 10 µM and 2340 nM.
The matching figures for `Cc1cnn(Cc2ccc(Cn3cc(C(=O)NCc4ccc(C5(N)CC5)cc4)cn3)cc2)c1` [Example 103, 1-[4-(4-Methyl-pyrazol-1-ylmethyl)-benzyl]-1H-pyrazole-4-carboxylic acid 4-(1-amino-cyclopropyl)-benzylamide]: > 10 µM and 694 nM.
Take `Cc1cc(C(=O)NCc2ccc(CN)cc2)c(C)n1Cc1cccc(-c2ccccc2)n1` [Example 16, 2,5-Dimethyl-1-(6-phenyl-pyridin-2-ylmethyl)-1H-pyrrole-3-carboxylic acid 4-aminomethyl-benzylamide]: the values for the IC50 in assay [1] and in assay [2] were > 10 µM and 186 nM, respectively.
The matching figures for `CCn1c(C(=O)NCc2ccc(CN)cc2)cc(C)c1Cc1csc(-c2ccccc2)n1` [Example 123, 1-Ethyl-4-methyl-5-(2-phenyl-thiazol-4-ylmethyl)-1H-pyrrole-2-carboxylic acid 4-aminomethyl-benzylamide]: > 10 µM and 2150 nM.
For `Cc1cc(C(=O)NCc2ccc(CN)cc2)c(C)n1Cc1csc(-c2cccs2)n1` [Example 26, 2,5-Dimethyl-1-[2-(2-thienyl)-thiazol-4-ylmethyl]-1H-pyrrole-3-carboxylic acid 4-aminomethyl-benzylamide], in that order: > 10 µM and 437 nM.
The matching figures for `Cc1cc(C(=O)NCc2ccc(CN)cc2)c(C)n1Cc1cccc(-c2ccccc2)c1` [Example 69, 1-Biphenyl-3-ylmethyl-2,5-dimethyl-1H-pyrrole-3-carboxylic acid 4-aminomethyl-benzylamide]: > 10 µM and 689 nM.
As for `CCOc1ccc(-c2nc(Cn3c(C)cc(C(=O)NCc4ccc(CN)cc4)c3C)cs2)cc1` [Example 41, 1-[2-(4-Ethoxy-phenyl)-thiazol-4-ylmethyl]-2,5-dimethyl-1H-pyrrole-3-carboxylic acid 4-aminomethyl-benzylamide], the IC50 was > 10 µM in assay [1] and 4700 nM in assay [2].
In the case of `Cc1cc(C(=O)NCc2ccc(CN)cc2C(F)(F)F)c(C)n1Cc1csc(-c2ccccc2)n1` [Example 50, 2,5-Dimethyl-1-(2-phenyl-thiazol-4-ylmethyl)-1H-pyrrole-3-carboxylic acid 4-aminomethyl-2-trifluoromethyl-benzylamide], the IC50 is > 10 µM in assay [1] and 56 nM in assay [2].
For the compound `NCc1ccc(CNC(=O)c2cnn(Cc3csc(-c4ccccc4)n3)c2C(F)(F)F)cc1` [Example 82, 1-(2-Phenyl-thiazol-4-ylmethyl)-5-trifluoromethyl-1H-pyrazole-4-carboxylic acid 4-aminomethyl-benzylamide], the IC50 was > 8.66 µM in assay [1] and 488 nM in assay [2].
Consider `CCn1c(C(=O)NCc2ccc(CN)cc2C)cc(C)c1Cc1ccc(Cn2ccccc2=O)cc1` [Example 92, 1-Ethyl-4-methyl-5-[4-(2-oxo-2H-pyridin-1-ylmethyl)-benzyl]-1H-pyrrole-2-carboxylic acid 4-aminomethyl-2-methyl-benzylamide], for which the IC50 in assay [1] is 10 µM; in assay [2], 40 nM.
For `Cc1cc(C(=O)NCc2ccc(CN)cc2)c(C)n1Cc1cccc(N2CCOCC2)n1` [Example 15, 2,5-Dimethyl-1-(6-morpholin-4-yl-pyridin-2-ylmethyl)-1H-pyrrole-3-carboxylic acid 4-aminomethyl-benzylamide], in that order: > 10 µM and 5690 nM.
For `CCn1c(C(=O)NCc2ccc(CN)cc2)cc(C)c1Cc1ccc(Cn2cc(C)cn2)cc1` [Example 121, 1-Ethyl-4-methyl-5-[4-(4-methyl-pyrazol-1-ylmethyl)-benzyl]-1H-pyrrole-2-carboxylic acid 4-aminomethyl-benzylamide], in that order: > 10 µM and 155 nM.
Consider `Cc1oc(-c2ccccc2)nc1Cn1c(C)cc(C(=O)NCc2ccc(CN)cc2)c1C` [Example 19, 2,5-Dimethyl-1-(5-methyl-2-phenyl-oxazol-4-ylmethyl)-1H-pyrrole-3-carboxylic acid 4-aminomethyl-benzylamide], for which the IC50 in assay [1] was > 10 µM; in assay [2] it was 768 nM.
For `NC1(c2ccc(CNC(=O)c3cnn(Cc4ccc(Cn5ccccc5=O)cc4)c3)cc2)CC1` [Example 89, 1-[4-(2-Oxo-2H-pyridin-1-ylmethyl)-benzyl]-1H-pyrazole-4-carboxylic acid 4-(1-amino-cyclopropyl)-benzylamide], in that order: > 10 µM and 226 nM.

A word on the IC50: it is the midpoint of a concentration-inhibition curve.

The record behind these values is patent publication US9670157B2, “Benzylamine derivatives” (KALVISTA PHARMACEUTICALS LIMITED, priority 2013, dated 2017).
